Test: Static antipolymerant screening: polystyrene formed in heated, inhibitor-free styrene (ASTM D2121 methanol precipitation, absorbance at 420 nm)
Details: 0.33 mmolal antipolymerant in styrene, 122° C., anaerobic
Method: The antipolymerant performance of the isolated cinnamyl quinone methide, 2,6-di-tert-butyl-4-(3-phenylallylidene)cyclohexa-2,5-dienone (7-Cinn-QM), was determined using the static method whereby a 0.31 mM (0.33 mmolal) solution of the retarder was prepared in inhibitor-free styrene. To start with, 4-tert-butylcatechol (TBC) was removed by eluting styrene through alumina. To prepare a 0.31 mM solution of 7-Cinn-QM, 0.0264 g were dissolved in freshly de-inhibited styrene to give a solution of 250 grams. Into twenty-four Ace Glass #15 threaded pressure tubes equipped with PTFE screw caps and fluoroelastomer (FETFE) O-rings, 9 mL of the solution were charged into each tube. To purge as much oxygen out of the solutions as possible, each solution was sparged with nitrogen for 2 minutes. Immediately after sparging each solution, the tube was sealed and the solution kept under a nitrogen gas overhead. […] After 30 minutes, and every 15 minutes thereafter, four tubes were retrieved from the block and the polymerization reaction quenched by cooling in an ice bath. The cooled polymer solutions were immediately diluted with toluene.
To measure the amount of polymer formed, methanol was used to precipitate the polymer in accordance with the ASTM D2121 method. The absorbance of the polymer-methanol admixtures were measured at 420 nm. Using a calibration curve, the polymer concentrations in each of the tubes was measured and the four data points for each time were averaged.
For comparative purpose, 0.0243 g of 7-Ph-QM were dissolved in 350 g of inhibitor-free styrene after which the antipolymerant performance was tested according to the procedure in Example 3.
Similarly, a styrene solution comprising 0.155 mmolal of 7-Ph-QM and 0.155 mmolal of 7-Cinn-QM was used to screen the performance of the combination in accordance with the procedure in Example 3.

Compound: 7-Phenyl Quinone Methide [7-Ph-QM]
- Polystyrene (%) (Time 30): 0.13%
- Polystyrene (%) (Time 45): 0.49%
- Polystyrene (%) (Time 60): 0.89%
- Polystyrene (%) (Time 75): 1.08%
- Polystyrene (%) (Time 90): 1.37%
- Polystyrene (%) (Time 105): 1.56%
- Polystyrene (%) (Time 120): 2.4%
- Polystyrene (%) (Time 135): 3.4%

Compound: CC(C)(C)C1=CC(=CC=Cc2ccccc2)C=C(C(C)(C)C)C1=O [7-Cinn-QM, 2,6-di-tert-butyl-4-(3-phenylallylidene)cyclohexa-2,5-dienone]
- Polystyrene (%) (Time 30): 0.05%
- Polystyrene (%) (Time 45): 0.20%
- Polystyrene (%) (Time 60): 0.41%
- Polystyrene (%) (Time 75): 0.88%
- Polystyrene (%) (Time 90): 1.54%
- Polystyrene (%) (Time 105): 3.39%
- Polystyrene (%) (Time 120): 5.13%
- Polystyrene (%) (Time 135): 7.07%

Reference: patent US9957209B2, “Use of quinone methides as antipolymerants for vinylic monomers” (Ecolab USA Inc., priority 2015, dated 2018)
